In patent publication US6566375B1, “Elevation of HDL cholesterol by 4-[(aminothioxomethyl)-hydrazono]-N-(substituted)-4-arylbutanamides” (Wyeth, priority 1997, dated 2003):

Key:
[1] = tested on: HDL cholesterol; assay: Cholesterol fed rat, in vivo assay of serum HDL cholesterol; set-up: species or system Male Sprague-Dawley rats; settings: test substance mixed in diet for 8 days, serum HDL cholesterol by FPLC
Experimental: The compounds are tested in vivo in rats fed cholesterol-augmented rodent chow for 8 days according to the test protocol and blood from the rats analyzed for HDL cholesterol.
In Vivo Assa.: Male Sprague-Dawley rats weighing 200-225 g are housed two per cage and fed Purina Rodent Chow Special Mix 5001-S supplemented with 0.25% cholic acid and 1.0% cholesterol and water ad libitum for 8 days. Each test substance is administered to a group of six rats fed the same diet with the test diet mixed in as 0.005-0.1% of the total diet. Body weight and food consumption are recorded prior to diet administration and at termination. Typical doses of the test substances are 5-100 mg/kg/day.
At termination, blood is collected from anesthetized rats and the serum is separated by centrifugation. Total serum cholesterol is assayed using the Sigma Diagnostics enzymatic kit for the determination of cholesterol, Procedure No. 352, modified for use with ninety-six well microtiter plates. After reconstitution with water the reagent contains 300 U/I cholesterol oxidase, 100 U/I horse radish peroxidase, 0.3 mmoles/l of 4-aminoantipyrine and 30.0 mmoles/l of p-hydroxybenzenesulfonate in a pH 6.5 buffer. In the reaction cholesterol is ;oxidized to produce hydrogen peroxide which is used to form a quinoneimine dye. The concentration of dye formed is measured spectrophotometrically by absorbance at 490 nm after incubation at 25° C. for 30 minutes. The concentration of cholesterol was determined for each serum sample relative to a commercial standard from Sigma.
HDL cholesterol concentrations in serum are determined by separation of lipoprotein classes by fast protein liquid chromatography (FPLC) by a modification of the method of Kieft et al., J. Lipid Res., 32 (1991) 859-866. 25 μl of serum is injected onto Superose 12 and Superose 6 (Pharmacia), in series, with a column buffer of 0.05 M Tris (2-amino-2-hydroxymethyl-1,3-propanediol) and 0.15 M sodium chloride at a flow rate of 0.5 ml/min. The eluted sample is mixed on line with Boehringer-Mannheim cholesterol reagent pumped at 0.2 ml/min. The combined eluents are mixed and incubated on line through a knitted coil (Applied Biosciences) maintained at a temperature of 45° C. The eluent is monitored by measuring absorbance at 490 nm and gives a continuous absorbance signal proportional to the cholesterol concentration. The relative concentration of each lipoprotein class is calculated as the per cent of total absorbance. HDL cholesterol concentration, in serum, is calculated as the per cent of total cholesterol as determined by FPLC multiplied by the total serum cholesterol concentration.

melting point [°C] | SMILES | % Increase in HDL (Dose) ([1]; 50 mg/kg) [%] | % Increase in HDL (Dose) ([1]; 100 mg/kg) [%] | % Increase in HDL (Dose) ([1]; 82 mg/kg) [%]
186 to 188 | NC(=O)CCC(=NNC(N)=S)c1ccccc1 [Example 3, 4-[(Aminothioxomethyl)-hydrazono]-4-phenylbutanamide] | 36.4 |  | 
58 to 65 | CC(C)CCCC(C)NC(=O)CCC(=NNC(N)=S)c1ccccc1 (stereo not shown) [Example 9, 4-[(Aminothioxomethyl)-hydrazono]-N-(1,5-dimethylhexyl)-4-phenyl-butanamide] | 40.4 |  | 
173 to 175 | CN(C)C(=O)CCC(=NNC(N)=S)c1ccccc1 [Example 7, 4-[(Aminothioxomethyl)hydrazono]-N,N-dimethyl-4-phenylbutanamide] | 56.2 |  | 
 | NC(=S)NN=C(CCC(=O)NCc1ccccc1)c1ccccc1 [Example 4, 4-[(Aminothioxomtethyl)-hydrazono]-N-benzyl-4-phenylbutanamide] | 49.5 |  | 
 | CNC(=O)CCC(=NNC(N)=S)c1ccccc1 [Example 5, 4-[(Aminothioxomrethyl)-hydrazono]-N-methyl-4-phenylbutanamide] |  | 43.3 | 
181 to 183 | NC(=S)NN=C(CCC(=O)N1CCCCC1)c1ccccc1 [Example 8, 1-[4-[(Aminothioxomethyl)hydrazono]-1-oxo-4-phenylbutyl]piperidine] | 52.8 |  | 
66 to 71 | CC(C)NC(=O)CCC(=NNC(N)=S)c1ccccc1 [Example 2, 4-[(Aminothioxomethyl)hydrazono]-N-(1-methylethyl)-4-phenyl-butanamide] |  | 61.7 | 
64 to 68 | CCCCNC(=O)CCC(=NNC(N)=S)c1ccccc1 [Example 1, 2-(4-Butylamino-4-oxo-1-phenyl-butylidene)-hydrazinothiocarboxamide] |  | 56 | 
89 to 92 | NC(=S)NN=C(CCC(=O)NC1CCCCC1)c1ccccc1 [Example 6, 4-[(Aminothioxomethyl)-hydrazono]-N-cyclohexyl-4-phenylbutanamide] |  |  | 28.1
